This is an account of results in patent publication US12378227B2, “Therapeutic cocrystals of 3-{[5-(azetidine-1-ylcarbonyl)pyrazin-2-yl]oxy}-5-{[(1S)-1-methyl-2-(methyloxy)ethyl]oxy)-N-(5-methylpyrazin-2-yl)benzamide” (CONDUIT UK MANAGEMENT LTD, priority 2021, dated 2025).

SMILES strings stand for the structures.

Data set [1] can be described thus: Solid-state stability study, accelerated storage 40° C./75% RH, 3 months. The settings on record: sealed container. The data set is classed as physicochemical. On the procedure: A study was carried out to examine the physical stability of the benzamide cocrystals of the invention with respect to solid form conversion or signs of decomposition over time under both ambient and accelerated conditions. 50 mg each of Cocrystal 1, Cocrystal 2, Cocrystal 4, and Cocrystal 5A were separately placed in a sealed container at 40° C. and 75% relative humidity and stored under these conditions for 3 months. After this time all samples remained unchanged in appearance with no signs of deliquescence and no signs of any colour change.

Data set [2] can be described thus: Solid-state stability study, ambient conditions, 12 months. Type of data set: physicochemical. The settings on record: clear glass vial. How it is done:
A second stability study was carried out where 50 mg each of Cocrystal 1, Cocrystal 2, Cocrystal 3, Cocrystal 4, and Cocrystal 5A were separately placed in a clear glass vial which was then stored under ambient conditions for 12 months. After this time all the cocrystals remained as white solids with no signs of colour change.

Data set [3] in a line: Polymorphism study (preparation methods 1 and 2 in different solvents). The settings on record: methods 1 and 2 using 2-propanol, ethyl acetate, acetonitrile, methyl ethyl ketone and water. Type of data set: physicochemical. How it is done:
As AZD1656 is known to exist in six different crystalline forms an investigation was carried out to examine whether Cocrystal 1 could also exist in multiple polymorphic forms. Preparation methods 1 and 2 described above were carried out using 2-propanol, ethyl acetate, acetonitrile, methyl ethyl ketone and water.
As AZD1656 is known to exist in six different crystalline forms an investigation was carried out to examine whether Cocrystal 2 could also exist in multiple polymorphic forms. Preparation methods 1 and 2 described above were carried out using 2-propanol, ethyl acetate, acetonitrile, methyl ethyl ketone and water.

A short description of data set [4]: Dry milling in ball mill, assessed by eye and by XRPD. The settings on record: dry milled, Retsch MM400 ball mill, 2×15 min at 30 Hz, stainless-steel jar. Type of data set: physicochemical. The source says: In order to prepare cocrystal samples of similar particle size for a dissolution study and to assess the impact of milling on the crystallinity of the cocrystals, Cocrystal 1, Cocrystal 2, Cocrystal 3, Cocrystal 4 and Cocrystal 5a were dry milled using a ball mill. WO 2012/007758 discloses that to achieve satisfactory dissolution of the benzamide compound particle size reduction was required. […] Thus, a solid form of the benzamide compound that could undergo particle size reduction with an efficient recovery rate without the need to use a co-milling excipient is beneficial. The milled cocrystals, Cocrystal 1, Cocrystal 2, Cocrystal 3, Cocrystal 4 and Cocrystal 5a, were therefore assessed by eye for any potential agglomeration issues or excessive sticking to the walls of the milling vessel that might indicate potential adhesion/cohesion issues such as those of the pure benzamide compound.
200 mg each of Cocrystal 1, Cocrystal 2, Cocrystal 3, Cocrystal 4 and Cocrystal 5a were separately placed in a 25 ml stainless-steel milling jar containing a 1 cm stainless steel ball bearing. Each benzamide cocrystal of the invention was dry milled in a Retsch MM400 ball mill for 2×15 min at 30 Hz. The product was assessed by eye and by XRPD.

The conditions of data set [5]: pure benzamide compound, as disclosed in WO 2012/007758; cited from earlier work.

Consider `COC[C@H](C)Oc1cc(Oc2cnc(C(=O)N3CCC3)cn2)cc(C(=O)Nc2cnc(C)cn2)c1.O=C(O)/C=C/C(=O)O` [Cocrystal 1, 1:1 benzamide fumaric acid], for which, in data set [1], the Appearance entry is listed as “No change” and the “XRPD analysis (form change)” value was “No change”. Further, in data set [2], the Appearance entry is listed as “No change” and the “XRPD analysis (form change)” value was “No change”. For the same compound, the Polymorphic forms obtained result in data set [3] was “single polymorphic form”. In addition, in data set [4], the “Powder flow / agglomeration after milling (by eye)” value (“Powder flow / agglomeration” below) is on record as “free-flowing powder with no obvious signs of agglomeration”, the “Recoverability from milling chamber / adhesion to walls (by eye)” value is given as “easily recoverable from the milling chamber with no excessive adhesion to the walls of the milling jar” and the “Signs of loss of crystallinity due to milling (XRPD)” value (“Signs of loss of crystallinity due” for short) is listed as “None”.
As for `COC[C@H](C)Oc1cc(Oc2cnc(C(=O)N3CCC3)cn2)cc(C(=O)Nc2cnc(C)cn2)c1.O=C(O)/C=C\C(=O)O` [Cocrystal 2, 1:1 benzamide maleic acid], in data set [1], the Appearance result is on record as “No change” and the “XRPD analysis (form change)” value is on record as “No change”. Also, in data set [2], the Appearance result is reported as “No change” and the “XRPD analysis (form change)” value was “No change”. Also, the Polymorphic forms obtained result in data set [3] is “single polymorphic form”. Also, in data set [4], the “Powder flow / agglomeration” value is “free-flowing powder with no obvious signs of agglomeration”, the “Recoverability from milling chamber / adhesion to walls (by eye)” value was “easily recoverable from the milling chamber with no excessive adhesion to the walls of the milling jar” and the “Signs of loss of crystallinity due” value is on record as “None”.
Regarding `COC[C@H](C)Oc1cc(Oc2cnc(C(=O)N3CCC3)cn2)cc(C(=O)Nc2cnc(C)cn2)c1.O=C(O)CC(=O)O` [Cocrystal 3, 1:1 benzamide malonic acid], in data set [2], the Appearance entry was “No change” and the “XRPD analysis (form change)” value was “No change”. For the same compound, in data set [4], the “Powder flow / agglomeration” value was “free-flowing powder with no obvious signs of agglomeration”, the “Recoverability from milling chamber / adhesion to walls (by eye)” value is given as “easily recoverable from the milling chamber with no excessive adhesion to the walls of the milling jar” and the “Signs of loss of crystallinity due” value was “None”.
Regarding `COC[C@H](C)Oc1cc(Oc2cnc(C(=O)N3CCC3)cn2)cc(C(=O)Nc2cnc(C)cn2)c1.O.O=C(O)C(O)C(O)C(=O)O` [Cocrystal 4, 1:1 benzamide L-tartaric acid hydrate], in data set [1], the Appearance result is reported as “No change” and the “XRPD analysis (form change)” value is recorded as “No change”. Also, in data set [2], the Appearance entry was “No change” and the “XRPD analysis (form change)” value is “No change”. Also, in data set [4], the “Powder flow / agglomeration” value was “free-flowing powder with no obvious signs of agglomeration”, the “Recoverability from milling chamber / adhesion to walls (by eye)” value is listed as “easily recoverable from the milling chamber with no excessive adhesion to the walls of the milling jar” and the “Signs of loss of crystallinity due” value is “None”.
For `COC[C@H](C)Oc1cc(Oc2cnc(C(=O)N3CCC3)cn2)cc(C(=O)Nc2cnc(C)cn2)c1.O=C(O)c1cc(O)ccc1O` [Cocrystal 5A, 1:1 benzamide gentisic acid form 1], in data set [1], the Appearance result is given as “No change” and the “XRPD analysis (form change)” value is “No change”. In addition, in data set [2], the Appearance result is listed as “No change” and the “XRPD analysis (form change)” value was “No change”. For the same compound, in data set [4], the “Powder flow / agglomeration” value is given as “free-flowing powder with no obvious signs of agglomeration”, the “Recoverability from milling chamber / adhesion to walls (by eye)” value is recorded as “easily recoverable from the milling chamber with no excessive adhesion to the walls of the milling jar” and the “Signs of loss of crystallinity due” value is reported as “None”.
Regarding `COC[C@H](C)Oc1cc(Oc2cnc(C(=O)N3CCC3)cn2)cc(C(=O)Nc2cnc(C)cn2)c1` [benzamide compound, 3-{[5-(azetidine-1-ylcarbonyl)pyrazin-2-yl]oxy}-5-{[(1S)-1-methyl-2-(methyloxy)ethyl]oxy}-N-(5-methylpyrazin-2-yl)benzamide], in data set [5], the “Adhesion on dry milling” value is listed as “excessive adhesion to the stainless-steel walls of the milling vessel resulting in low recovery yields”.
